Entries after “also recorded” stand apart in the source; their conditions may differ.
Key:
HT-1080 cells = test: Rescue activity of Fer-1 analogs: inhibition of erastin-, IKE- or RSL3-induced death (Alamar Blue viability); assay type: cell-based
[1] = Microsomal stability, human liver microsomes (Table 1); assay type: in vitro ADME; settings: liver microsomes; Human: Pooled, 50 donors; read-out: Microsomal Stability t1/2 (converted)
[2] = Plasma stability, human (Table 1); assay type: in vitro ADME
R6/2 mice = test: 45-day drinking water and PO study of ferrostatins in R6/2 mice (weight, survival, Rotarod, Catwalk, LC/MS); assay type: in vivo
Experimental: Ferrostatins and 42 μM Citric acid were dissolved in 5% DMSO, 5% ethanol, and 90% PBS rendering a final concentration of 0.29 mg/mL of each ferrostatin in drinking water. The mice drink ˜2 mL water per day, and the resulting dosage was around 20-30 mg/kg/day. R6/2 mice at ˜6-7 weeks of age were treated via drinking water and PO at 20 mg/kg. Mice were weighed daily, the weight recorded, and the change in body weight compared to the baseline, pre-injection weight was calculated. Any mouse that lost more than 20% of its baseline body weight for three consecutive days was euthanized prior to the completion of the study. Mice were euthanized by CO2 asphyxiation for 3 min after administration. Approximately 0.5 mL of blood was collected via cardiac puncture and immediately put in K3 EDTA microtubes and kept on ice. Brains were harvested, placed in Eppendorf tubes, and frozen on dry ice. Blood samples were centrifuged for 10 min at 2,100×g at 4° C., then plasma was transferred to a clean tube and frozen on dry ice.
Brain samples were weighed and placed in hard tissue homogenizing tubes. Two volume of HPLC grade methanol was added to make a solution and homogenized using the Omni Bead Ruptor 4 at speed 5 for two 30-second runs. The product was aliquoted and diluted by adding 900 μL HPLC grade ice-cold methanol. After centrifugation for 20 mins at 14,000×g at 4° C., supernatant was collected in a clean vial and dried by vacuum centrifugation (GeneVac).
Prior to LC-MS analysis, the samples were resuspended in 100 μL methanol and centrifuged for 5 minutes at 14,000×g at 4° C. The supernatant was analyzed via SYNAPT High Resolution Mass Spectrometer.
Rotarod “Linear Incline” experiment was performed with 11- to 12-week-old R6/2 mice at Day 25 with a rotations per minute (RPM) ramp over a 300s duration, start speed of 5 RPM, and max speed of 40 RPM. Mice were acclimated to testing room for 30 minutes prior to experimentation. Latency to fall was recorded in seconds for each mouse, and lanes were cleaned with 70% ethanol between mice.
The Catwalk apparatus (Noldus Information Technology, Leesburg, VA) consisted of an illuminated walled glass walkway (130 cm×10 cm) and a high-speed camera underneath. Mice were allowed 30 minutes to acclimate to the testing room, then behavioral task was performed with 11- to 12-week-old R6/2 mice on Day 25. Mice were placed on the glass walkway and allowed to ambulate freely across the runway towards the goal box at the end of the walkway. A goal box blocked the other end of the walkway, forcing the mouse to return to the entryway. Each mouse completed Catwalk runs until three compliant runs (fluent crossings without stopping/hesitation), were detected and verified, running for as long as needed to do so. Behavioral measures were calculated using Noldus Gait Analysis Software, and pairing and further comparisons were done using RM one-way ANOVAs.
The pharmacokinetic properties of TH-4-55-2 were initially assessed in vivo, focusing on its BBB distribution. Subsequent investigations involved TH-4-67 and TH-2-31. […] This regimen continued for 45 days, during which changes in body weight were monitored (FIG. 29A). Mouse body weights that fell under 20% of baseline measurements were sacrificed, while spontaneous deaths over the course of the study were monitored (FIG. 29B). Motor coordination was assessed via Rotarod behavior measurements (FIG. 30), and gait analysis was conducted using CatWalk (FIGS. 31A-31B).

Cc1noc(-c2ccc(NC3CCCCC3)c(NC3CCCCC3)c2)n1 [PHB4082, N1,N2-dicyclohexyl-4-(3-methyl-1,2,4-oxadiazol-5-yl)benzene-1,2-diamine]
increase in potency compared to fer-1 (HT-1080 cells; suppressing erastin-induced ferroptosis): 7 fold

CCOC(=O)c1ccc(NC2CCCCC2)c(N)c1 [Fer-1, Ferrostatin-1, reference compound]
EC50 (HT-1080 cells; Homo sapiens, ^a 50% viability, HT-1080 cells treated with 10 μM erastin): 50 nM | half-life [1]: 11.4 min | Plasma Stability at six hours (% remaining) [2]: 100%

CCC(CC)Nc1cc(-c2nc(C)no2)cnc1NC1CCCCC1 [TH-4-55-2, N^2-cyclohexyl-5-(3-methyl-1,2,4-oxadiazol-5-yl)-N^3-(pentan-3-yl)pyridine-2,3-diamine]
Rotarod latency to fall (R6/2 mice; PO 20 mg/kg, Day 25, 20 mg/kg): consistently scored higher compared to control; also recorded: consistently higher mean latency to fall across trials compared to control | accumulation in brain over plasma (R6/2 mice; PO and drinking water, 45-day course): preferentially accumulated in the brain over plasma for both routes of administration

Cc1noc(-c2cnc(NC3CCCCC3)c(NC3CCCCC3)c2)n1 [TH-2-31, N^2,N^3-dicyclohexyl-5-(3-methyl-1,2,4-oxadiazol-5-yl)pyridine-2,3-diamine]
Catwalk gait: Base of Support (BOS) (R6/2 mice; PO, Day 25): significantly worse BOS compared to Vehicle; also recorded: significantly worse performance

Cc1noc(-c2cnc(NC3CCCC3)c(NC3CCCC3)c2)n1 [TH-4-67, N^2,N^3-dicyclopentyl-5-(3-methyl-1,2,4-oxadiazol-5-yl)pyridine-2,3-diamine]
Catwalk gait: Base of Support (BOS) (R6/2 mice; PO, Day 25): significant decrease in Base of Support (BOS); also recorded: significant improvement of BOS in the hind paws of least coordinated mice | Catwalk gait: Cadence (R6/2 mice; PO, Day 25, Best performing mice): the leading compound among this group

— patent publication US20240156790A1, “COMPOUNDS, COMPOSITIONS, AND METHODS FOR MODULATING FERROPTOSIS AND TREATING EXCITOTOXIC DISORDERS” (THE TRUSTEES OF COLUMBIA UNIVERSITY IN THE CITY OF NEW YORK, priority 2018, published 2024)
